Results as given in patent US20250057832A1, “USE OF A CLASS OF 1,4-DIHYDRO-NAPHTHYRIDINE DERIVATIVES IN TREATMENT OF TUMORS” (NEURODAWN PHARMACEUTICAL CO., LTD., priority 2021, published 2025).
Entries after “also recorded” stand apart in the source; their conditions may differ.

Tests used:
[1] = test system: HepG2; assay: Vacuolation phenotype by S2 (Example 2); assay type: cell-based, human; conditions: HepG2, 30 μM, 6 hours
Method: (§1) U87MG, T98G, U251, SK-N-SH, A-172 and HepG2 cells were adherently cultured in MEM+10% FBS+1% P/S medium and passaged at 1:3; CT26.WT cells were adherently cultured in RPMI-1640+10% FBS+1% P/S medium and passaged at 1:3; CHO-K1 was cultured adherently in Ham's F-12K+10% FBS+[…] medium and passaged at 1:3.
(§2) The cells used above were resuscitated and passaged twice stably. When the cell density reached above 85%, the cells were digested with 0.05% trypsin-EDTA for 3 minutes, resuspended with the culture medium, and plated into a 6-well plate at a certain density, with each well system being 2 mL. The cells were cultured for 24 hours, added with 2 μL of the above-prepared S2 solution (final DMSO concentration 0.1%) to each well according to the grouping, such that the S2 concentration in the cell culture system reached 30 μM.
(§3) After 6 hours of drug treatment, the plate was observed under a microscope with a 20× objective lens, and five fields of view were randomly selected for each well to take photos and record. If bright vacuoles with clear border appeared in the cell in the observed field of view, and at least one of the following conditions was met: 1) a cell contained at least one vacuole with a diameter greater than […]; 2) a cell contained 3 or more vacuoles with a diameter within the range of […], the cell was considered as a methuosis-positive cell (Journal of Medicinal Chemistry 2018 61 (12), 5424-5434).
(§4) CELLpositive: the number of methuosis-positive cells; CELLnormal: the number of cells with normal morphology

[2] = test system: U251; assay: Vacuolation phenotype by S2 (Example 2); assay type: cell-based, human; conditions: U251, 30 μM, 6 hours
Method: as §1, §2, §3, §4

[3] = test system: SK-N-SH; assay: Vacuolation phenotype by S2 (Example 2); assay type: cell-based, human; conditions: 30 μM, 6 hours
Method: as §1, §2, §3, §4

[4] = test system: T98G subcutaneous transplantation tumor; assay: Human brain glioma T98G subcutaneous model in NOD SCID mice (Example 6); assay type: in vivo, NOD SCID mouse; conditions: S2 3 mg/kg IV
Method: Human brain glioma T98G cells were cultured in vitro. The cells were cultured in EMEM medium added with 10% fetal calf serum, 100 U/mL penicillin and 100 µg/mL streptomycin, in a 37° C. 5% CO2 incubator. After the number of cells reached the required number, the cells were collected. 0.2 mL (10×10^6) of T98G tumor cells (PBS:Matrigel=1:1) were subcutaneously inoculated into the right back of each mouse. The mice were grouped and administered when the average tumor volume reached approximately 147 mm^3. […]
Tumor diameters were measured with vernier calipers twice a week, and tumors were weighed and photographed after the experiment.
1.5 Data Statistics The tumor volume was calculated as follows: V=0.5a×b^2, where a and b represent the long and short diameters of the tumor respectively.
The tumor inhibitory effect was evaluated by TGI (%) or relative tumor proliferation rate T/C (%).
The tumor inhibitory effect was calculated as TGI (%): TGI %=[1-(average tumor volume at the end of administration in a certain treatment group−average tumor volume at the beginning of administration in the treatment group)/(average tumor volume at the end of administration in the vehicle control group−average tumor volume in the vehicle control group at the beginning of treatment)]×100. […]

[5] = test system: CHO-K1; assay: Cell viability assay (Example 2); assay type: cell-based, hamster; conditions: non-tumor cell line CHO-K1, 48 hours
Method: as §1
(§5) The above various cells were resuscitated and stably passaged twice. When the cell density reached above 85%, the cells were digested with 0.05% trypsin-EDTA for three minutes, resuspended, plated in a 96-well plate at the corresponding density, and cultured for 24 hours. The cells were treated with drugs at final concentrations of the culture system of 0.41 μM, 1.23 μM, 3.7 μM, 11.1 μM, 33.3 μM, and 100 μM. After 48 hours of drug treatment, cell viability was determined using CellCounting-Lite™ 2.0 kit. The plate was added with reagents at 100 µL/well according to the CellCounting-Lite™ 2.0 kit instructions, and shaken for 10 minutes. The luminescence value (LUM) was read on a multi-function plate reader, and the relative viability of the cells was calculated.
(§6) Relative viability of tumor cells V (%)=(LUM-LUMbackground)/(LUMnormal control−LUMbackground)×100%. LUMbackground was the background reading of the complete culture medium well added with the detection reagent. The half inhibitory concentration (IC50) was calculated using GraphPad Prism 8.0.1 statistical software.

[6] = test system: U87MG; assay: Cell viability assay (Example 2); assay type: cell-based; conditions: Homo sapiens, U-87 MG, 48 hours
Method: as §1, §5, §6

[7] = test system: CT26.WT; assay: Cell viability assay (Example 2); assay type: cell-based; conditions: Mus musculus, 48 hours
Method: as §1, §5, §6

[8] = test system: HepG2; assay: Cell viability assay (Example 2); assay type: cell-based; conditions: Homo sapiens; HepG2, 48 hours
Method: as §1, §5, §6

[9] = test system: A172; assay: Cell viability assay (Example 2); assay type: cell-based; conditions: Homo sapiens, A 172; A172, 48 hours
Method: as §1, §5, §6

[10] = test system: T98G; assay: Cell viability assay (Example 2); assay type: cell-based; conditions: Homo sapiens, 48 hours
Method: as §1, §5, §6

[11] = test system: U251; assay: Cell viability assay (Example 2); assay type: cell-based; conditions: Homo sapiens, U-251; U251, 48 hours
Method: as §1, §5, §6

[12] = test system: SK-N-SH; assay: Cell viability assay (Example 2); assay type: cell-based; conditions: Homo sapiens, 48 hours
Method: as §1, §5, §6

SMILES: CCOC(=O)C1=C(C)Nc2nc3c(c(N)c2C1c1ccccc1Cl)CC(C)(C)CC3 (centres unmarked) [Compound S2]
- Induction of vacuolation [1]: can also induce vacuolation
- Induction of vacuolation [2]: can induce vacuolation
- Induction of vacuolation [3]: can induce vacuolation
- Tumor volume growth vs vehicle (FIG. 13A-C) [4]: significantly inhibited tumor volume growth; also recorded: inhibited the growth of T98 glioma
- Tumor weight at end of experiment vs control (FIG. 13D) [4]: significantly lower than that in the control group; also recorded: reduced the volume and weight of solid tumors
- IC50 ([5]; CHO-K1, 48 h): > 100 µM
- IC50 [5]: ~100 µM
- IC50 [6]: 11.7 µM
- IC50 [7]: 7.1 µM
- IC50 [8]: 10.1 µM
- IC50 [9]: 4.7 µM
- IC50 [10]: 9.4 µM
- IC50 [11]: 14.3 µM
- IC50 [12]: 11.4 µM
